Results: patent US11433092B2, “Compositions and methods of use for wound healing” (SYNEDGEN, INC., priority 2013, dated 2022)

Tested on: Methicillin Resistant Staphylococcus aureus (NRS 384/USA 300)
Assay: Deep partial thickness biofilm prevention porcine wound model, MRSA
Format: in vivo
Procedure: The animals were prepared as described (above). Ninety-six (96) rectangular wounds measuring 10 mm×7 mm×0.5 mm deep were made in the paravertebral and thoracic area with a specialized electrokeratome fitted with a 7 mm blade. The wounds were separated from one another by 15 mm of unwounded skin and individually dressed. The wounds were then inoculated and treated. A fresh culture of Acinetobacter baumannii ATCC 19606 or Methicillin Resistant Staphylococcus aureus (NRS 384/USA 300) was used in these studies. The challenge inoculum suspension was prepared by scraping the overnight growth from a culture plate into 5 ml of normal saline. […] Serial dilutions were made until a concentration of 10^6 CFU/ml was achieved. […] In addition, serial dilutions of the suspension were plated onto selective media and the plates were incubated aerobically overnight (16-24 hours) at 37° C., in order to quantify the exact concentration of viable organisms used for this experiment. […]
Twelve (12) wounds were recovered from each treatment group on each assessment day (days 3 and 4). […] Serial dilutions were made from all culture samples, and the extent of microbiological contamination was assessed using the Spiral Plater System (Spiral Biotech, Norwood, Mass.). […] All plates were incubated aerobically overnight 24 hours at 37° C., after which time the number of viable colonies were counted.

## C/C(=C\C(=O)OCCCCCCCCC(=O)O)C[C@@H]1OC[C@H](C[C@@H]2O[C@H]2[C@@H](C)[C@H](C)O)[C@@H](O)[C@H]1O [mupirocin]
Across treatment days
  biofilm infection at day 3 compared to day 4 (MRSA): significant reduction in biofilm infection
Days 3 and 4
  biofilm infection (MRSA): significantly reduced biofilm infection
